Measurements as given in patent US20100249145A1, “Inhibitors of VEGF Receptor and HGF Receptor Signaling” (Methylgene, Inc., priority 2005, published 2010).
pIC50: −log10 of the molar value.

Tests used:
[1] = molecular target: T1, recombinant human c-Met/HGF receptor (Homo sapiens, UniProt P08581); test: In vitro receptor tyrosine kinase assay (DELFIA), c-Met/HGF receptor; format: biochemical; settings: Table 31; ATP 10 uM, enzyme 25 nM; read-out: CMet ic50
T1 construct: His tag (histidine tag from pBlueBacHis2A); made in house; host or cells: Hi-5 cells (Trichoplusia ni), recombinant baculovirus

VEGF receptor KDR = molecular target: T2, VEGF receptor KDR (Homo sapiens, UniProt P35968); test: In vitro receptor tyrosine kinase assay (DELFIA), VEGF receptor KDR; format: biochemical; settings: Table 31; ATP 0.6 uM, enzyme 5 nM; read-out: VEGFR IC50
T2 construct: made in house; host or cells: Sf9 cells (Spodoptera frugiperda), recombinant baculovirus
From the text: In Vitro Receptor Tyrosine Kinase Assays (c-Met/HGF receptor and VEGF Receptor KDR)
In the case of VEGF receptor KDR a 1.6-kb cDNA corresponding to the catalytic domain of VEGFR2 or KDR (Genbank accession number AF035121 amino acid 806 to 1356) was cloned into the Pst I site of the pDEST20 Gateway vector (Invitrogen) for the production of a GST-tagged version of that enzyme.
The GST-VEGFR2806-1356 protein was expressed in Sf9 cells (Spodoptera frugiperda) upon infection with recombinant baculovirus construct.
The supernatant was loaded onto a GST-agarose column (Sigma) equilibrated with PBS pH 7.3. Following a four column volume (CV) wash with PBS pH 7.3+1% Triton X-100 and 4 CV wash with buffer B (50 mM Tris pH 8.0, 20% glycerol and 100 mM NaCl), bound proteins were step eluted with 5 CV of buffer B supplemented with 5 mM DTT and 15 mM glutathion. […] Final GST-VEGFR2806-1356 protein preparations concentrations were about 0.7 mg/ml with purity approximating 70%.

A549 = A549 wound healing inhibition (HGF dependent migration); format: cell-based; settings: Homo sapiens, Table 31, read-out: A549 wound healing inbib IC50
From the text: (§1) HGF has well known activity in terms of inducing scattering and migration (wound healing) (Wells et al., Cell Motil Cytoskeleton. 2005 November 62(3):180-94; Miura et al., Urology 2001 December 58(6):1064-9; Nishimura et al., Int J. Urol. 1998 May 5(3):276-81; Wang et al., Mol Cancer Ther. 2003 November; 2(11):1085-92; and Christensen et al., Cancer Res. 2003 Nov. 1; 63(21):7345-55).

DU145 = DU145 scattering inhibition (HGF dependent scattering); format: cell-based; settings: Homo sapiens, DU-145, Table 31, read-out: DU145 scattering inhib IC50
From the text: as §1

T1 sequence (P08581 1078-1337): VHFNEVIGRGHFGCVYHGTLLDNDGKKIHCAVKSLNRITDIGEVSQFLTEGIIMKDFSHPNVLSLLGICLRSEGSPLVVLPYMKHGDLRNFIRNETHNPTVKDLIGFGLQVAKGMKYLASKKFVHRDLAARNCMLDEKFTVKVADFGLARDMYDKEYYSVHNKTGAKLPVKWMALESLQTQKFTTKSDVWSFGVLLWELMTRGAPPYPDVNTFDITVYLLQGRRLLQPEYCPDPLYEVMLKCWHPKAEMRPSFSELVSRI
T2 sequence (P35968 806-1356): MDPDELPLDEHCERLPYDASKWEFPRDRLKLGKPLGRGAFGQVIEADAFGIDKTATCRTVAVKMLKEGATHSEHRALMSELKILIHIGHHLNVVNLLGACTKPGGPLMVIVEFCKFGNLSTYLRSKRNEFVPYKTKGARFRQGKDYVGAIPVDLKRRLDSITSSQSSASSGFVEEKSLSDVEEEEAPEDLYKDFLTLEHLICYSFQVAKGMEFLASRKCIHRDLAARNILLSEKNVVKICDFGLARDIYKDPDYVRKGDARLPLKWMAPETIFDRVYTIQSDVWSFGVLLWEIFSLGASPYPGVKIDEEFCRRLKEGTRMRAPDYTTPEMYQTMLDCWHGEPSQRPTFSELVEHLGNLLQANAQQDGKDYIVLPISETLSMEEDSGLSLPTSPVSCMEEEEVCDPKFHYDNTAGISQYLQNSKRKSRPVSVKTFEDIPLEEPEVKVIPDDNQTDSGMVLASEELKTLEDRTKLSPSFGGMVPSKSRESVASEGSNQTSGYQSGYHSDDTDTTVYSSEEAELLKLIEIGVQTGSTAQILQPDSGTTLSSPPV

Structure (SMILES)	pIC50 [1]	pIC50 (VEGF receptor KDR)	pIC50 (A549)	pIC50 (DU145)
CO/N=C(\C)c1cc2nccc(Oc3ccc(NC(=S)NC(=O)Cc4ccccc4)cc3F)c2s1	> 7.30	6.60 to 7.30	5.30 to 6.00	5.30 to 6.00
CC(C(=O)NC(=S)Nc1ccc(Oc2ccnc3cc(-c4nccn4C)sc23)c(F)c1)c1ccccc1 (stereo not shown)	6.60 to 7.30	6.60 to 7.30	> 6.00	> 6.00
CN(c1ccc(NC(=S)NC(=O)Cc2ccccc2)cc1F)c1ccnc2ccsc12	6.30 to 6.60	< 6.30	5.00 to 5.30	5.00 to 5.30
CN(c1ccc(NC(=S)NC(=O)Cc2ccccc2)cc1F)c1ccnc2cc(-c3nccn3C)sc12	> 7.30	< 6.30	> 6.00	> 6.00
O=C(Cc1ccccc1)NC(=S)Nc1ccc(Nc2ccnc3ccsc23)c(F)c1	6.60 to 7.30	< 6.30	> 6.00	5.30 to 6.00
Cn1cnc(-c2cc3nccc(Nc4ccc(NC(=S)NC(=O)Cc5ccccc5)cc4F)c3s2)c1	> 7.30	< 6.30	> 6.00	> 6.00
CN1CCN(CCN(C)Cc2ccc(-c3cc4nccc(Oc5ccc(NC(=S)NC(=O)Cc6ccccc6)cc5F)c4s3)cc2)CC1	> 7.30	> 7.30	> 6.00	> 6.00
CN(c1ccc(NC(=S)NC(=O)Cc2ccccc2)cc1F)c1ccnc2cc(-c3cn(C)cn3)sc12	> 7.30	< 6.30	> 6.00	> 6.00
CN1CCN(Cc2ccc(-c3cc4nccc(Oc5ccc(NC(=S)NC(=O)Cc6ccccc6)cc5F)c4s3)nc2)CC1	> 7.30	> 7.30	> 6.00	> 6.00
O=C(Cc1ccccc1)NC(=S)Nc1ccc(Oc2ccnc3cc(-c4cn(CCN5CCCC5)cn4)sc23)c(F)c1	> 7.30	> 7.30	5.00 to 5.30	> 6.00
COc1cccc(Nc2cc3nccc(Oc4ccc(NC(=S)NC(=O)Cc5ccccc5OC)cc4F)c3s2)c1	6.60 to 7.30	< 6.30	5.30 to 6.00	5.30 to 6.00
CN1CCN(Cc2ccc(-c3cc4nccc(Oc5ccc(NC(=S)NC(=O)Cc6ccccc6)cc5F)c4s3)cc2)CC1	> 7.30	> 7.30	> 6.00	> 6.00
Cn1ccnc1-c1cc2nccc(Sc3ccc(NC(=S)NC(=O)Cc4ccccc4)cc3)c2s1	> 7.30	< 6.30	> 6.00	> 6.00
CN1CC=C(c2cc3nccc(Oc4ccc(NC(=S)NC(=O)Cc5ccccc5)cc4F)c3s2)CC1	> 7.30	6.30 to 6.60	> 6.00	> 6.00
CCNC(=O)N1CCN(Cc2ccc(-c3cc4nccc(Oc5ccc(NC(=S)NC(=O)Cc6ccccc6)cc5F)c4s3)cc2)CC1	> 7.30	> 7.30	> 6.00	> 6.00
O=C(Cc1ccccc1)NC(=S)Nc1ccc(Oc2ccnc3cc(-c4ccc(CN5CCCC5)cn4)sc23)c(F)c1	> 7.30	> 7.30	> 6.00	> 6.00
CCn1ccnc1-c1cc2nccc(Oc3ccc(NC(=S)NC(=O)Cc4ccc(F)cc4F)cc3F)c2s1	> 7.30	6.60 to 7.30	> 6.00	> 6.00
C#Cc1cccc(F)c1CC(=O)NC(=S)Nc1ccc(Oc2ccnc3cc(-c4cn(C)cn4)sc23)c(F)c1	> 7.30	> 7.30	> 6.00	> 6.00
C#Cc1ccccc1CC(=O)NC(=S)Nc1ccc(Oc2ccnc3cc(-c4cccc[n+]4[O-])sc23)c(F)c1	> 7.30	> 7.30	> 6.00	> 6.00
C#Cc1cc(F)ccc1CC(=O)NC(=S)Nc1ccc(Oc2ccnc3cc(-c4cccc[n+]4[O-])sc23)c(F)c1	> 7.30	> 7.30	> 6.00	> 6.00
C=C(F)c1ccccc1CC(=O)NC(=S)Nc1ccc(Oc2ccnc3cc(-c4cn(C)cn4)sc23)c(F)c1	> 7.30	> 7.30	> 6.00	> 6.00

Other lines, results leading:

pIC50 [1]	pIC50 (VEGF receptor KDR)	pIC50 (A549)	pIC50 (DU145)	Structure (SMILES)
> 7.30	> 7.30	> 6.00	> 6.00	CN(CCO)Cc1ccc(-c2cc3nccc(Oc4ccc(NC(=S)NC(=O)Cc5ccccc5)cc4F)c3s2)cc1
> 7.30	> 7.30	5.30 to 6.00	> 6.00	O=C(Cc1ccccc1)NC(=S)Nc1ccc(Oc2ccnc3cc(-c4ccc(CN5CCNCC5)cc4)sc23)c(F)c1
> 7.30	> 7.30	5.30 to 6.00	> 6.00	CCn1cnc(-c2cc3nccc(Oc4ccc(NC(=S)NC(=O)Cc5ccc(F)cc5F)cc4F)c3s2)c1
> 7.30	6.30 to 6.60	> 6.00	> 6.00	CN1CC=C(c2cc3nccc(Oc4ccc(NC(=S)NC(=O)Cc5ccc(F)cc5)cc4F)c3s2)CC1
> 7.30	> 7.30	> 6.00	> 6.00	CCn1cnc(-c2cc3nccc(Oc4ccc(NC(=S)NC(=O)Cc5ccc(F)cc5)cc4F)c3s2)c1
> 7.30	> 7.30	> 6.00	> 6.00	Cn1ccnc1-c1cc2nccc(Oc3ccc(NC(=S)NC(=O)Cc4ccc(F)cc4F)cc3F)c2s1
> 7.30	> 7.30	> 6.00	> 6.00	C#Cc1ccccc1CC(=O)NC(=S)Nc1ccc(Oc2ccnc3cc(-c4ccc(CNCCOC)cn4)sc23)c(F)c1
> 7.30	> 7.30	> 6.00	> 6.00	O=C(Cc1ccc(F)cc1)NC(=S)Nc1ccc(Oc2ccnc3cc(-c4cccc[n+]4[O-])sc23)c(F)c1
> 7.30	6.60 to 7.30	> 6.00	> 6.00	O=C(Cc1ccc(F)cc1)NC(=S)Nc1ccc(Oc2ccnc3cc(-c4cc[n+]([O-])cc4)sc23)c(F)c1
6.60 to 7.30	6.60 to 7.30	5.30 to 6.00	5.30 to 6.00	C=C(F)c1cccc(CC(=O)NC(=S)Nc2ccc(Oc3ccnc4cc(-c5cn(C)cn5)sc34)c(F)c2)c1
> 7.30	> 7.30	> 6.00	> 6.00	CC(=O)N1CC=C(c2cc3nccc(Oc4ccc(NC(=S)NC(=O)Cc5ccc(F)cc5)cc4F)c3s2)CC1
> 7.30	> 7.30	> 6.00	> 6.00	CCN(CCOC)Cc1ccc(-c2cc3nccc(Oc4ccc(NC(=S)NC(=O)Cc5ccc(F)cc5)cc4F)c3s2)cc1
> 7.30	6.60 to 7.30	> 6.00	> 6.00	CS(=O)(=O)c1ccc(-c2cc3nccc(Oc4ccc(NC(=S)NC(=O)Cc5ccc(F)cc5)cc4F)c3s2)cc1
> 7.30	> 7.30	> 6.00	> 6.00	CN(C)C(=O)c1ccc(-c2cc3nccc(Oc4ccc(NC(=S)NC(=O)Cc5ccc(F)cc5)cc4F)c3s2)cc1
> 7.30	6.30 to 6.60	> 6.00	> 6.00	COCCNCc1cccc(-c2cc3nccc(Oc4ccc(NC(=S)NC(=O)Cc5ccc(F)cc5)cc4F)c3s2)n1
> 7.30	6.60 to 7.30	> 6.00	> 6.00	COCCNCc1ccc(-c2cc3nccc(Oc4ccc(NC(=O)NC(=O)Cc5ccc(F)cc5)cc4F)c3s2)cc1
